Experimental findings from article PMC7307922 (Journal of Medicinal Chemistry, 2020) are described below.

For one series, the target named is T1, hFFA3 (Homo sapiens, UniProt O14843).
T1 sequence (O14843 1-346): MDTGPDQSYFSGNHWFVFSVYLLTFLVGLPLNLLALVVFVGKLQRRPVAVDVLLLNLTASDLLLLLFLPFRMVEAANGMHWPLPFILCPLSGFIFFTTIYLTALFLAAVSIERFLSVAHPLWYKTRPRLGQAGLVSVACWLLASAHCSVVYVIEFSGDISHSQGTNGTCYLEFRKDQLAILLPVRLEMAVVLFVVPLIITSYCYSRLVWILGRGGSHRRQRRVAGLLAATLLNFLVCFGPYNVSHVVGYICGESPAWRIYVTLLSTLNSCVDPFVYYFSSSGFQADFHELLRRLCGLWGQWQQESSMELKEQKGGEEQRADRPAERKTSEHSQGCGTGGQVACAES
Briefly: cell-based. The conditions noted are these: for Emax: HEK293, read-out: cAMP Emax; for cAMP pEC50 / EC50: hFFA3; for cAMP pEC50: compound alone, mean of ≥3 independent experiments ± standard error; for EC50: read-out: EC50 (cAMP assay). Put shortly: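 HEK293 Flp-In T-REx cells stably carrying FFA3-eYFP, expression induced overnight with doxycycline, 3000 cells/well; compounds co-incubated 1 h to inhibit 0.3 μM forskolin-induced cAMP, read with HTRF cAMP kit.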
(In general: Changes in cAMP serve as a functional read-out for many G protein-coupled receptors.)

The nature of the next series: log D7.4 measurement. The conditions noted are these: pH 7.4; read-out: logD7.4. It is filed as physicochemical. On the procedure:
Solubility and log D7.4 measurements were performed in accordance to the previously published procedures.[35]

For the next series, the target named is T2, rFFA3 (Rattus norvegicus, UniProt B2GV46).
T2 construct: expressed in transfected cells; host or cells: HEK293 Flp-In T-REx, doxycycline-induced
T2 sequence (B2GV46 1-319): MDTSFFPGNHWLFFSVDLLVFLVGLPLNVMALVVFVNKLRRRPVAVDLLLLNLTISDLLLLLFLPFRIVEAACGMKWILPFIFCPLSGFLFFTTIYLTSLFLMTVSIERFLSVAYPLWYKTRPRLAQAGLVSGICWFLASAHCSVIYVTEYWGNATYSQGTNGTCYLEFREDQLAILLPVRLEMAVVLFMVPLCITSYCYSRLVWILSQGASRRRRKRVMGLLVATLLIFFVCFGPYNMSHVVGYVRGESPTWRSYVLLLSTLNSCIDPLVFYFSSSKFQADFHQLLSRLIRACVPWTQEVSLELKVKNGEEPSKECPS
Briefly: cAMP assay, rFFA3. It is filed as cell-based. On the procedure: With several compounds with improved properties in hand, we wished to investigate the suitability of the compounds as tools for in vivo studies in rodents. Because of the moderate potency and low solubility associated with this series, it has been presumed that they are poorly suited as in vivo tools.
HEK293 Flp-In T-Rex cells stably transfected with FFA3-eYFP receptors were incubated overnight with doxycycline to induce expression, then harvested, and cryopreserved. On the day of each experiment, cells were thawed and resuspended in stimulation buffer. Assays were carried out using a 384-well plate format with 3000 cells/well using the CisBio cAMP GS dynamic kit as per manufacturer’s protocol. Compounds were tested for the ability to inhibit 0.3 μM forskolin-induced cAMP production after co-incubation for 1 h. Reactions were measured using a PHERAstar FS plate reader (BMGLabtech, Aylesbury, UK).

The next series deals with human GPR84 (Homo sapiens, UniProt Q9NQS5). Briefly: GPR84 counterscreen, cAMP assay. Format: cell-based. As to conditions: 10 μM. Here is the method:
Counter screening against FFA1, FFA2 , FF A4 and GPR84 […]
(100 ng/mL) overnight to induce receptor expressi on. […]
Counter screening for GPR84 was carried out using a cAMP assay. Flp -In T-Re x 293 cells generated to stably express human GPR84 tagged at is C-terminal with Gia were first treated with doxycycline […]
HT R-FRET cAMP assay (CisBio) according to the manufacturer’s protocol and measured using an Envision plate reader (PerkinElmer). For these experiments, 5000 cells were used per well in a low volume 384-well plate and compounds were tested against their ability to inhibit the cAMP response to 1 µM forskolin for 45 min. TUG-1985 was used as reference agonist. […]
(A counterscreen serves to expose hits that act by an unwanted route or on another target.)

In series [1] the target is T3, Cav1.2 (L-type) Human Calcium Ion Channel (Homo sapiens, UniProt Q13936).
T3 construct: Panlabs
T3 sequence (Q13936 whole entry): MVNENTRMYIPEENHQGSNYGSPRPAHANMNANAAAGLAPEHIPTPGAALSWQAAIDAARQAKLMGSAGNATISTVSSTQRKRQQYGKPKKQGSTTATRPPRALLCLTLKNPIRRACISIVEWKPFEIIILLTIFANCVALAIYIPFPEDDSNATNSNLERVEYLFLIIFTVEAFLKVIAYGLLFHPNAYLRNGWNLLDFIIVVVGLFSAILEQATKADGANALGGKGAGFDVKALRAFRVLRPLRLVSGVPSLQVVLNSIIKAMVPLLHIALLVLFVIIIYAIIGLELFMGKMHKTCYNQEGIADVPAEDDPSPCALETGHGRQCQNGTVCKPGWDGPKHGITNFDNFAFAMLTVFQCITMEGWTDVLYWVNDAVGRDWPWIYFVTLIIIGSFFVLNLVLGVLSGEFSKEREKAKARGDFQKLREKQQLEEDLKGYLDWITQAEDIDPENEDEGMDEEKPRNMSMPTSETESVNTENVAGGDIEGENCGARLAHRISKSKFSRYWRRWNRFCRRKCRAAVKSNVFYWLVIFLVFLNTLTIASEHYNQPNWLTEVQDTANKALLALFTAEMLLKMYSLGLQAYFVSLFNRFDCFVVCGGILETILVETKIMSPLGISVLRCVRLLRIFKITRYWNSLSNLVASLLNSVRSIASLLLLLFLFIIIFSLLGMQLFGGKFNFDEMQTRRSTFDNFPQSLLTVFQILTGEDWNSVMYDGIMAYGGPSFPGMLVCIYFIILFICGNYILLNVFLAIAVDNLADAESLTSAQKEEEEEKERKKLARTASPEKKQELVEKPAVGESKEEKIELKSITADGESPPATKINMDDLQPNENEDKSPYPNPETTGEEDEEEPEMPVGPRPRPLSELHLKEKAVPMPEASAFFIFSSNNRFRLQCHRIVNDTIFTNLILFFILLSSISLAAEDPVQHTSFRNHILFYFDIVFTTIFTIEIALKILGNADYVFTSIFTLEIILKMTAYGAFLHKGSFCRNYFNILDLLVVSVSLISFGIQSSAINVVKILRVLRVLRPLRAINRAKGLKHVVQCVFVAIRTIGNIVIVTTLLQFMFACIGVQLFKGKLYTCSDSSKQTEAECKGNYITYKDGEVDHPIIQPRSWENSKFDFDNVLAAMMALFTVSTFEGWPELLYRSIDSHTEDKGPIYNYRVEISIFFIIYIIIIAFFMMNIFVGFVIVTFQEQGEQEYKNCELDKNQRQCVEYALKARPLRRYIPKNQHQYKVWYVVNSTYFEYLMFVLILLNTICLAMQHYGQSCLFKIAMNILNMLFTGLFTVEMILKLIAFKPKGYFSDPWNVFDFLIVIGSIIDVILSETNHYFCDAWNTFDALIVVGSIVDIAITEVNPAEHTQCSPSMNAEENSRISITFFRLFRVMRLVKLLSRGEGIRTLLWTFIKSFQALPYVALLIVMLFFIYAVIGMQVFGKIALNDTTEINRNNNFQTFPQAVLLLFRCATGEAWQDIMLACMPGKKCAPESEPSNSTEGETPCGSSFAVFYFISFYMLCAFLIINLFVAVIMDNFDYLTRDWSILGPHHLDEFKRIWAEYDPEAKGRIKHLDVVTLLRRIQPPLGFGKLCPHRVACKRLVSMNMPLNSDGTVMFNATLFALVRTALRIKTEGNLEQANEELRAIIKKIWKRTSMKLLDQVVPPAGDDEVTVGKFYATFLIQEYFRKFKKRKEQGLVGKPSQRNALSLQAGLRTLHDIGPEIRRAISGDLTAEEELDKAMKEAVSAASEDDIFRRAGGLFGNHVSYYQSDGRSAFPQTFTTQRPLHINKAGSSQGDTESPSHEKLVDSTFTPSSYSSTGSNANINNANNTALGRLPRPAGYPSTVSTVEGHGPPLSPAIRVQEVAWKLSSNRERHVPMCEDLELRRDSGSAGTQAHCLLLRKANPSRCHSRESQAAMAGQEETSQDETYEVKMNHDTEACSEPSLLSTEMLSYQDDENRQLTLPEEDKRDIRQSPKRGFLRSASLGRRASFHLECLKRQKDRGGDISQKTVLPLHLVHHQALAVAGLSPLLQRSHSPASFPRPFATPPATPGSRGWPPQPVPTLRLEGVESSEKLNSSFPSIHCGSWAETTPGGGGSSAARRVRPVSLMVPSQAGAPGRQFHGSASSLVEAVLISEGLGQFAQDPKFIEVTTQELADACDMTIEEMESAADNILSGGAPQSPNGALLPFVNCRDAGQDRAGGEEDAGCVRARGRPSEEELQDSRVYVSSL
T3 sequence (Q08289 whole entry partner): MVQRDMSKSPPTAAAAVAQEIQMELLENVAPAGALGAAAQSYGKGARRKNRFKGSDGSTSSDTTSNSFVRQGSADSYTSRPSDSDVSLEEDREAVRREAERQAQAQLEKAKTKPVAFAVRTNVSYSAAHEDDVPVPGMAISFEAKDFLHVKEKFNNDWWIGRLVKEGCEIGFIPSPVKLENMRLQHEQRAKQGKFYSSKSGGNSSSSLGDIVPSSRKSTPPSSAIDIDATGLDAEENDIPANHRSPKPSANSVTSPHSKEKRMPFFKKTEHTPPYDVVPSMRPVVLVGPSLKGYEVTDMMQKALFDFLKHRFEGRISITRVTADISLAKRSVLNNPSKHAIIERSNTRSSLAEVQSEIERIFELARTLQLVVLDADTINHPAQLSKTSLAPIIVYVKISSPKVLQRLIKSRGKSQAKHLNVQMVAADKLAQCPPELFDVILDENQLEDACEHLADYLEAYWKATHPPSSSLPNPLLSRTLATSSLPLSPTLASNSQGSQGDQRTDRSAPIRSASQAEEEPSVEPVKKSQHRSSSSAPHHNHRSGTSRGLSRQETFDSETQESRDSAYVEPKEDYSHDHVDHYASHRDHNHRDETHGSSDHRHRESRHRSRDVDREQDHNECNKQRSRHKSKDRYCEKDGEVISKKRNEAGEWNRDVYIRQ
T3 sequence (P54289 25-946 partner limits assumed): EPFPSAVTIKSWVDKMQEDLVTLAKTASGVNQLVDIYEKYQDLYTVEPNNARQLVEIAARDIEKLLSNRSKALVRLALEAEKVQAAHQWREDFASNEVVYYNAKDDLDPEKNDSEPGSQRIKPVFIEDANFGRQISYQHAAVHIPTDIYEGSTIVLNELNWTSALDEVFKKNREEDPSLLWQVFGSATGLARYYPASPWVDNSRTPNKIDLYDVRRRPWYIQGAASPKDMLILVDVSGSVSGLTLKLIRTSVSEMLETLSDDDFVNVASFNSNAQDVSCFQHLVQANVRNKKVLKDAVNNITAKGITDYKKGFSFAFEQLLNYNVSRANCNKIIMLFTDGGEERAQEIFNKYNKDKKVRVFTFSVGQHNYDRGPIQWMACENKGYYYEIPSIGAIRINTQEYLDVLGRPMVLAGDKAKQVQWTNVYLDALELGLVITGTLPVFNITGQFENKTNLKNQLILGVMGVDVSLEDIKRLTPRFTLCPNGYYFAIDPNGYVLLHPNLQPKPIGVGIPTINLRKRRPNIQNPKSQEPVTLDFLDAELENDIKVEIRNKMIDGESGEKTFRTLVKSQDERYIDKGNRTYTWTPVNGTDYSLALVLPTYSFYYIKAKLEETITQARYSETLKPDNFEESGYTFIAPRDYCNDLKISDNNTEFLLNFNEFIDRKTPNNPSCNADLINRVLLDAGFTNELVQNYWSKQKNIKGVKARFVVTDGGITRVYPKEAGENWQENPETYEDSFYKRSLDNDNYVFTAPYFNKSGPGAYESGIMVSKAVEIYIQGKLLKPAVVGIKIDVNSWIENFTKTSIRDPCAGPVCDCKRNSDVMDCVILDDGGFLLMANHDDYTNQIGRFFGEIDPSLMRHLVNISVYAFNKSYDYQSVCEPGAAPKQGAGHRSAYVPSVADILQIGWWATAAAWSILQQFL
T3 sequence (P54289 947-1103 partner limits assumed): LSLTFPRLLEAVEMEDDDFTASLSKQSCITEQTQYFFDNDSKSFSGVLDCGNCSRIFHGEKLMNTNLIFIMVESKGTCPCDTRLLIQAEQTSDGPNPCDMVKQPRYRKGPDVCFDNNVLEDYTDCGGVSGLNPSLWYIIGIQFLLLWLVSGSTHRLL
Briefly: Cav1.2 (L-type) calcium ion channel binding assay, Panlabs. The conditions noted are these: 10 μM. Here is the method: Counterscreen data on 1, 16, 57 and 63
Cav1.2 (L-type) Human Calcium Ion Channel Binding -20% 13% 12% 1%
(Antagonist Radioligand) Assay, Panlabs, 10 µM

The target in a further series is T4, human FFA4 (Homo sapiens, UniProt Q5NUL3).
T4 construct: expressed in transfected cells; host or cells: HEK293T, transient co-transfection
T4 sequence (Q5NUL3 1-361): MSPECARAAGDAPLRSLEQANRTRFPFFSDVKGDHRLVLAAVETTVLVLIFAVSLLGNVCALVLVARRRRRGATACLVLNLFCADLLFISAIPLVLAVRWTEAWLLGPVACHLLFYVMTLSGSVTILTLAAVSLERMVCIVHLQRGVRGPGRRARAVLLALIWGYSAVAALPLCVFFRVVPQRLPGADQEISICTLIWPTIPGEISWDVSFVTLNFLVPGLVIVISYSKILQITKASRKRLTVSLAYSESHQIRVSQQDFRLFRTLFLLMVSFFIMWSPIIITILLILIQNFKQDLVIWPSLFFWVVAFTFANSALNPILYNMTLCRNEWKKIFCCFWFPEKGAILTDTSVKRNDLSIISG
Briefly: FFA4 counterscreen, arrestin BRET assay. It is filed as cell-based. As to conditions: 10 μM. On the procedure: Counter screening against FFA1, FFA2 , FF A4 and GPR84
Counter screening against FFA1 and FFA4 was carried out using a modified version of a previously described bioluminescence resonance energy transfer (BRET) designed to assess recruitment of b-ar r estin-2 to each receptor.2 Briefly, HEK293T cells were co-transfected with plasmids en coding either human FFA1 or human FFA4 tagged at their C -termini with eYFP and with a plasmid encoding b-ar r estin-2 tagged at its N-terminal with Nanoluciferase. 24 h post transfection cells were seeded into black with clear bottom 96-well plates that had been coated with poly-D-lysine. Cells were then cultured a further 24 h prior to experiments. Cells were then washed twice with Hank’s Balanced salt solution supplemented with 10 mM HEPES (HBSSH) then incubated at 37 °C in HBSSH for 30 min prior to running the assay. The Nluc substrate, coelenterazine h was then added to a f inal concentration of 5 µM and cells were incubated at 37 °C for 10 min prior to adding test agonists. Following a further 5 min incubation, luminescent emission at 475 nm and 535 nm was measured using a Pherastar FS reader (BMG Labtech, Aylesbury, UK) pla te reader set for bottom plate optics. The BRET ratio was then calculated as 535/475 emissions and all BRET ratio values were normalized against the maxima l BRET ratio obtained using reference agonists for the respective receptors (TUG -891 for FFA4, TUG-770 for FFA1). For antagonism studies, the same protocol was used, however the antagonist was added 15 min prior to the addition of an EC 80 concentration of the reference agonist for each receptor. […]

human GPR84, sequence (Q9NQS5 whole entry): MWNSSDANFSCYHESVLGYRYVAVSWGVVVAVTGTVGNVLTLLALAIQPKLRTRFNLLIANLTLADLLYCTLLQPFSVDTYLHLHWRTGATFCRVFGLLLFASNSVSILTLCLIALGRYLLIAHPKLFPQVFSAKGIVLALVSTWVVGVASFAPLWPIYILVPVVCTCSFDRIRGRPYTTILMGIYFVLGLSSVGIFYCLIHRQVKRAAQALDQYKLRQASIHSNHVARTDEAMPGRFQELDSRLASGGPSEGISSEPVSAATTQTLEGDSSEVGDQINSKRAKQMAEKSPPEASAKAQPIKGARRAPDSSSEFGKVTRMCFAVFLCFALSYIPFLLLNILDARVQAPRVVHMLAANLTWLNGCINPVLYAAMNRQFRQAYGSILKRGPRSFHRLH

On to `CC1=C(C(=O)Nc2ccccc2C)C(c2ccco2)C2=C(CCCC2=O)N1` (stereo not drawn) [Compound 1, 4-(Furan-2-yl)-2-methyl-5-oxo-N-(o-tolyl)-1,4,5,6,7,8-hexahydroquinoline-3-carboxamide, reference compound], for which, on hFFA3, the maximal response (Emax) is 105% and the “cAMP pEC50” value turned out to be 6.28 ± 0.06. Moreover, the “PAM pEC50” value on hFFA3 (cAMP assay in the presence of 1 μM propionate) turned out to be 6.27 ± 0.15. Further, in the series “log D7.4 measurement”, the logD was determined as 2.05. Further, at rFFA3, the “cAMP pEC50 (rFFA3)” value was 5.87 ± 0.07. On human GPR84, the “GPR84, agonist, cAMP assay” value is listed as 1±7% and the “activity at GPR84” value is “No significant activity”. For the same compound, in series [1], the “Cav1.2 (L-type) binding (antagonist radioligand)” value (“Cav1.2 (L-type) binding” for short) is on record as -20% and the “activity at L-type calcium ion channels” value is on record as “No significant activity”. Further, the “activity at FFA4” value on human FFA4 is recorded as “No significant activity”.

On to `CC1=C(C(=O)Nc2cc(Cl)ccc2Cl)C(c2ccco2)C2=C(CCCC2=O)N1` (stereo not drawn) [Compound 16, reference compound], for which, on hFFA3, the Emax is 106% and the “cAMP pEC50” value turned out to be 6.89 ± 0.02. Further, the logD in the series “log D7.4 measurement” came out at 3.19. Further, the “cAMP pEC50 (rFFA3)” value at rFFA3 came to 6.34 ± 0.04. Moreover, at human GPR84, the “GPR84, agonist, cAMP assay” value was 2±4% and the “activity at GPR84” value was “No significant activity”. For the same compound, in series [1], the “Cav1.2 (L-type) binding” value is given as 13% and the “activity at L-type calcium ion channels” value is recorded as “No significant activity”. Moreover, the “activity at FFA4” value at human FFA4 is reported as “No significant activity”.

For the compound `CCCC1C(C(=O)Nc2cc(Cl)ccc2Cl)=C(C)NC2=C1C(=O)CCC2` (stereo not drawn) [Compound 57, N-(2,5-Dichlorophenyl)-2-methyl-5-oxo-4-propyl-1,4,5,6,7,8-hexahydroquinoline-3-carboxamide], at hFFA3, the maximal effect (Emax) was 113%, the “cAMP pEC50” value amounted to 6.84 ± 0.02 and the EC50 came out at 145 nM. Also, the logD at 24 h in the series “log D7.4 measurement” was found to be 4.25. For the same compound, on human GPR84, the “GPR84, agonist, cAMP assay” value came to 1±4% and the “activity at GPR84” value was “No significant activity”. In series [1], the “Cav1.2 (L-type) binding” value came out at 12% and the “activity at L-type calcium ion channels” value is on record as “No significant activity”. For the same compound, the “activity at FFA4” value at human FFA4 is listed as “No significant activity”.

Regarding `CC1=C(C(=O)Nc2cc(Cl)ccc2Cl)C(C2CCCC2)C2=C(CCCC2=O)N1` (stereo not drawn) [Compound 63, 4-Cyclopentyl-N-(2,5-dichlorophenyl)-2-methyl-5-oxo-1,4,5,6,7,8-hexahydroquinoline-3-carboxamide], on hFFA3, the Emax was 99%, the “cAMP pEC50” value was determined as 6.79 ± 0.05 and the EC50 turned out to be 162 nM. The “allosteric effect on propionate response” value on hFFA3 (cAMP assay together with propionate (56: 30 μM compound; 62, 63: 1 μM propionate)) is on record as “did not reveal significant PAM effects”. The logD in the series “log D7.4 measurement” is greater than 4.3. The “cAMP pEC50 (rFFA3)” value on rFFA3 came out at 6.39 ± 0.03. Moreover, at human GPR84, the “GPR84, agonist, cAMP assay” value is 0±1% and the “activity at GPR84” value was “No significant activity”. Also, in series [1], the “Cav1.2 (L-type) binding” value amounted to 1% and the “activity at L-type calcium ion channels” value is “No significant activity”. Also, the “activity at FFA4” value at human FFA4 was “No significant activity”.

As usually defined, the Emax is the size of the effect at its maximum, as opposed to the concentration needed. A word on the EC50: it is the concentration needed to bring the measured effect to its halfway point.
